Data taken from the supplement of paper PMC10307832.

Key:
Test in all cases: relative viability (nuclei count vs DMSO), 5 days (fraction); higher = more cells survive
Apatinib + Luminespib = compound: N#CC1(c2ccc(NC(=O)c3cccnc3NCc3ccncc3)cc2)CCCC1 [Apatinib] + CCNC(=O)c1noc(-c2cc(C(C)C)c(O)cc2O)c1-c1ccc(CN2CCOCC2)cc1 [Luminespib] (partner 0.01 µM)
Method in brief: (§1)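 A single step with final 0.05% Triton X-100, 1% formaldehyde and 1 ug/ml Hoechst fixed the cells and stained nuclei 5 days after treatment. Lung cancer cell lines in 1536-well plates had been treated by pin tool the day after seeding with one drug alone or a fixed anchor-drug dose plus five library-drug doses (not always all listed) in √10 steps, and nuclei were counted on 4× images. Relative viability is the ratio of nuclei in treated wells to nuclei in vehicle wells, taken as the median of duplicate plates.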

Apatinib + Alpelisib = compound: N#CC1(c2ccc(NC(=O)c3cccnc3NCc3ccncc3)cc2)CCCC1 [Apatinib] + Cc1nc(NC(=O)N2CCC[C@H]2C(N)=O)sc1-c1ccnc(C(C)(C)C(F)(F)F)c1 [Alpelisib] (partner 2 µM)
Method in brief: as §1

Metformin + Navitoclax = compound: CN(C)C(=N)NC(=N)N [Metformin] + CC1(C)CCC(c2ccc(Cl)cc2)=C(CN2CCN(c3ccc(C(=O)NS(=O)(=O)c4ccc(N[C@H](CCN5CCOCC5)CSc5ccccc5)c(S(=O)(=O)C(F)(F)F)c4)cc3)CC2)C1 [Navitoclax] (partner 0.5 µM)
Method in brief: as §1

Metformin + Phenformin = compound: CN(C)C(=N)NC(=N)N [Metformin] + N=C(N)NC(=N)NCCc1ccccc1 [Phenformin] (partner 250 µM)
Method in brief: as §1

Cell Line	relative viability (Apatinib + Luminespib; first compound 0.08 µM)	relative viability (Apatinib + Luminespib; first compound 0.253 µM)	relative viability (Apatinib + Luminespib; first compound 0.8 µM)	relative viability (Apatinib + Luminespib; first compound 2.53 µM)	relative viability (Apatinib + Luminespib; first compound 8 µM)	relative viability (Apatinib + Alpelisib; first compound 0.08 µM)	relative viability (Apatinib + Alpelisib; first compound 0.253 µM)	relative viability (Apatinib + Alpelisib; first compound 0.8 µM)	relative viability (Apatinib + Alpelisib; first compound 2.53 µM)	relative viability (Apatinib + Alpelisib; first compound 8 µM)	relative viability (Metformin + Navitoclax; first compound 10 µM)	relative viability (Metformin + Navitoclax; first compound 31.62 µM)	relative viability (Metformin + Navitoclax; first compound 100 µM)	relative viability (Metformin + Navitoclax; first compound 316.23 µM)	relative viability (Metformin + Navitoclax; first compound 1000 µM)	relative viability (Metformin + Phenformin; first compound 10 µM)	relative viability (Metformin + Phenformin; first compound 31.62 µM)	relative viability (Metformin + Phenformin; first compound 100 µM)	relative viability (Metformin + Phenformin; first compound 316.23 µM)	relative viability (Metformin + Phenformin; first compound 1000 µM)
RERF-LC-KJ	1.11	1.35	1.07	1.22	1.02	0.857	0.875	0.779	0.751	0.823	1.08	1.15	0.752	0.833	0.745	0.489	0.466	0.456	0.428	0.499
NCI-H647	0.235	0.144	0.267	0.136	0.23	1.39	1.21	1.1	0.799	0.706	0.869	1.13	1.44	1.12	0.763	0.614	0.58	0.62	0.521	0.653
NCI-H1395	0.713	0.686	0.784	0.604	0.527	1.23	1.16	1.06	1.18	0.931	1.11	1.32	1.06	0.958	1.1	0.448	0.429	0.525	0.423	0.467
NCI-H522	1.14	1.08	1.27	1.07	0.955	–	–	–	–	–	–	–	–	–	–	0.716	0.649	0.713	0.584	0.712
NCI-H322M	0.871	0.845	0.9	1.01	1.07	0.782	0.744	0.766	0.89	0.782	1.19	1.28	1.02	1.14	1.19	0.839	0.802	0.809	0.735	0.746
H3255	0.791	0.782	0.811	0.644	0.829	0.665	0.674	0.569	0.614	0.537	0.503	0.623	0.571	0.531	0.355	0.395	0.365	0.436	0.338	0.382
201T	0.983	1.02	1.12	1	0.855	1.01	1.08	1.03	1.09	1.05	–	1.26	1.17	1.16	1.17	–	0.426	0.47	0.435	0.414
SW 1573	0.318	0.184	0.183	0.162	0.195	0.829	0.917	0.757	0.761	0.595	0.878	0.835	1.11	0.994	1.1	0.422	0.387	0.492	0.414	0.364
NCI-H2170	0.841	0.649	0.609	0.676	0.621	0.884	0.776	0.8	0.743	0.706	0.579	0.526	0.575	0.497	0.507	0.369	0.434	0.444	0.441	0.469
NCI-H1993	0.885	0.906	0.886	0.757	0.673	0.779	0.675	0.703	0.656	0.654	1.04	1.04	1.28	0.968	1.25	0.479	0.481	0.514	0.532	0.499
NCI-H1755	0.295	0.695	0.524	0.491	0.479	0.933	0.946	0.909	0.899	0.845	0.821	0.897	0.912	0.89	0.935	0.543	0.626	0.639	0.613	0.632
NCI-H1437	1.11	1.12	1.11	0.923	0.817	1.03	1.11	0.911	0.912	0.644	1.08	1.08	1.12	0.979	1.08	0.296	0.363	0.338	0.343	0.299
EPLC-272H	0.898	–	0.92	0.329	0.201	1.04	0.904	0.841	0.971	0.903	1.23	1.1	1.04	1.1	1.4	0.333	0.369	0.381	0.262	0.304
LK-2	0.185	0.178	0.187	0.209	0.188	1.33	1.29	1.04	1.01	0.919	0.86	1.15	1.2	0.933	1.2	0.758	0.636	0.374	0.381	0.667
NCI-H1975	0.167	0.195	0.229	0.176	0.262	0.662	0.691	0.508	0.562	0.576	1.23	1.32	1.28	1	1.23	0.422	0.436	0.418	0.414	0.404
HARA	0.928	0.875	0.419	0.6	0.678	1.07	0.837	0.852	0.735	0.795	1.13	1.1	1.2	1.02	1.16	–	0.459	0.518	0.493	0.591
SK-MES-1	0.732	0.796	0.701	0.727	0.795	0.825	0.928	0.822	0.929	0.658	0.879	1.08	1.07	0.973	1.14	0.504	0.534	0.545	0.495	0.512
